# Values quoted from earlier work as cited in patent US20090226517A1, “PHARMACEUTICAL FORMULATIONS COMPRISING DULOXETINE” (priority 2008, published 2009).
# Settings: background statement; limited aqueous solubility
structure (smiles),measurement,value
CNCC[C@H](Oc1cccc2ccccc12)c1cccs1 [Duloxetine],BCS class,BCS class II
